Results: the NIST ThermoML archive (doi:10.1021/je049940f)
Numbers after ± are expanded uncertainties.

Experiments:
[1] = xn = mol fraction of the nth substance listed; conditions: 10000 kPa, Liquid
[2] = wn = mass fraction of the nth substance listed; conditions: Liquid

Compound: O=C=O [carbon dioxide] + O
- viscosity ([1]; 303.15 K, x1 = 0.0073): 0.81 ± 0.05 mPa·s
- viscosity ([1]; 303.15 K, x1 = 0.0148): 0.86 ± 0.05 mPa·s
- viscosity ([1]; 303.15 K, x1 = 0.0238): 0.89 ± 0.06 mPa·s
- viscosity ([1]; 313.15 K, x1 = 0.0107): 0.68 ± 0.04 mPa·s
- viscosity ([1]; 313.15 K, x1 = 0.0207): 0.7 ± 0.06 mPa·s

Compound: [Cl-].[Na+] [sodium chloride] + O
- viscosity ([2]; 303.15 K, 10000 kPa, w1 = 0.03): 0.84 ± 0.05 mPa·s
- viscosity ([2]; 303.15 K, 20000 kPa, w1 = 0.03): 0.83 ± 0.05 mPa·s
- viscosity ([2]; 313.15 K, 10000 kPa, w1 = 0.03): 0.68 ± 0.04 mPa·s
- viscosity ([2]; 313.15 K, 20000 kPa, w1 = 0.03): 0.69 ± 0.04 mPa·s
- viscosity ([2]; 323.15 K, 10000 kPa, w1 = 0.03): 0.59 ± 0.04 mPa·s
- viscosity ([2]; 323.15 K, 20000 kPa, w1 = 0.03): 0.59 ± 0.04 mPa·s
- viscosity ([2]; 333.15 K, 10000 kPa, w1 = 0.03): 0.49 ± 0.04 mPa·s
- viscosity ([2]; 333.15 K, 20000 kPa, w1 = 0.03): 0.5 ± 0.04 mPa·s

Compound: O [water] + [Cl-].[Na+]
- viscosity ([2]; 303.15 K, 10000 kPa, w2 = 0): 0.8 ± 0.05 mPa·s
- viscosity ([2]; 313.15 K, 10000 kPa, w2 = 0): 0.66 ± 0.04 mPa·s
- viscosity ([2]; 323.15 K, 10000 kPa, w2 = 0): 0.56 ± 0.04 mPa·s
- viscosity ([2]; 333.15 K, 10000 kPa, w2 = 0): 0.47 ± 0.04 mPa·s
